“And” between values parts separate entries of the source, which are not always exact repeats. Equal entries are not always repeated. Where two headings read alike, the source gives them in different places.
Assays:
[1] = Cytotoxicity assay against L6 cells; assay type: cell-based; settings: rat skeletal myoblast L6, mean ± margin of deviation of two independent determinations
Method: Cytotoxicity was assessed using rat skeletal myoblasts (L6 cells) and a similar protocol as used for the Tbr assay. […] All following steps were according to the T. b. rhodesiense protocol (see Section 3.3. above).

[2] = tested on: P. falciparum NF54 strain; assay: Antiplasmodial activity, [3H]-hypoxanthine incorporation assay; assay type: cell-based, Plasmodium falciparum
Method: Antiplasmodial activity was determined using the NF54 strain of P. falciparum (drug sensitive). A modification of the [^3H]-hypoxanthine incorporation assay was used. […] After 48 h of incubation at 37 °C in a reduced oxygen atmosphere, 0.5 μCi ^3H-hypoxanthine was added to each well. Cultures were incubated for a further 24 h before they were harvested onto glass-fiber filters and washed with distilled water. The radioactivity was counted using a Betaplate™ liquid scintillation counter (Wallac, Zurich, Switzerland). […] From the sigmoidal inhibition curves IC50 values were calculated. Assays were run in duplicate and repeated once.

[3] = tested on: T. b. rhodesiense STIB 900 bloodstream forms; assay: Anti-trypanosomal activity on T. brucei rhodesiense (Alamar blue); assay type: cell-based, Trypanosoma brucei rhodesiense
Method: Minimum Essential Medium with Earle’s salts (50.0 µL) supplemented with 0.2 mM 2-mercaptoethanol, 1.0 mM Na pyruvate and 15% heat-inactivated horse serum was added to each well of a 96-well microtiter plate. Serial drug dilutions of eleven 3-fold steps covering a range from 100 to 0.002 µM were prepared. Then 10^4 bloodstream forms of T. b. rhodesiense STIB 900 in 50.0 µL of medium were added to each well and the plate incubated at 37 °C under a 5% CO2 atmosphere for 72 h. Alamar blue solution (10.0 µL of a solution of 12.5 mg resazurin dissolved in 100 mL distilled water) were then added to each well and incubation continued for a further 2–4 h. The plate was then read in a Spectramax Gemini XS microplate fluorometer (Molecular Devices Corporation, Sunnyvale, CA, USA) using an excitation wavelength of 536 nm and emission wavelength of 588 nm. Fluorescence development was measured and expressed as percentage of the control. Data were transferred into the graphic programme Softmax Pro (Molecular Devices), which calculated IC50 values.

[4] = tested on: L. donovani amastigotes (strain MHOM/ET/67/L82); assay: Antileishmanial activity on L. donovani (axenic amastigote assay); assay type: cell-based, Leishmania donovani; settings: for IC50: 72 h, axenic amastigotes, mean ± margin of deviation of two independent determinations
Method: Fifty µL of SM medium at pH 5.4 supplemented with 10% heat-inactivated FBS, was added to each well of a 96-well microtiter plate. Serial drug dilutions were prepared covering a range from 100.0 to 0.002 µM. Then 10^5 axenically grown L. donovani amastigotes (strain MHOM/ET/67/L82) in 50.0 µL medium were added to each well and the plate incubated at 37 °C under a 5% CO2 atmosphere for 72 h. Resazurin solution (10.0 µL, 12.5 mg resazurin dissolved in 100 mL distilled water) were then added to each well and incubation continued for a further 2–4 h. The plate was then read in a Spectramax Gemini XS microplate fluorometer (Molecular Devices, Sunnyvale, CA, USA) using an excitation wavelength of 536 nm and emission wavelength of 588 nm. Fluorescence development was measured and expressed as percentage of the control. Data were transferred into the graphic programme Softmax Pro (Molecular Devices) which calculated IC50 values from the sigmoidal inhibition curves.

[5] = tested on: T. brucei; settings: cited from earlier work
[6] = tested on: malarial parasite; design: method as in PMID 21157686; settings: cited from earlier work
[7] = Plasmodium falciparum, NF54, read-out: IC50 Values P. falciparum
[8] = L6 cells (rat skeletal myoblasts)
[9] = Plasmodium falciparum, NF54, NF54 strain, mean ± margin of deviation of two independent determinations, read-out: IC50 Values P. falciparum
[10] = 72 h; mean ± margin of deviation of two independent determinations; read-out: IC50 Values T. b. rhodesiense
[11] = Trypanosoma brucei, 72 h; mean ± margin of deviation of two independent determinations; read-out: IC50 Values T. b. rhodesiense

Compound | IC50 [1, 8] | IC50 [2, 9] | Activity against bloodstream forms of T. brucei (in words) [3] | IC50 [3, 11] | other results
CCN(CC)CCCC(C)Nc1ccnc2cc(Cl)ccc12 (centres unmarked) [Chloroquine, reference compound] | – | – | – | – | IC50 [1]: 120 ± 27.5 µM; IC50 [2, 7]: 0.004 µM
COC(=O)C(C)C1=CC=C(C)CCC2OC2(C)CCC=C(C)CC1 (stereo not drawn) [Compound 1, 7S,8S-epoxy-1,3,11-cembratriene-16-oic methyl ester] | > 54 µM | 22.95 ± 0.15 µM | showed activity | ≤ 1 µM | IC50 [3, 10]: 1 ± 0.19 µM
CC1=CCCC(C)(O)C=CC(C(C)C)CCC(C)=CCC1 [Compound 2, (1R,4R,2E,7E,11E)-cembra-2,7,11-trien-4-ol] | 49.4 ± 5.2 µM | 14.8 ± 0.9 µM | showed activity | ≤ 1 µM | IC50 [3, 10]: 1.14 ± 0.5 µM; Selectivity index, times more active against Tbr than against L6 cells ([3]; L6 vs Tbr): 43
C/C1=C\[C@@H]2O[C@@H](O)[C@@]3(C)O[C@@]23CC/C(C)=C/CC[C@](C)(O)[C@@H](O)CC1 [Compound 6, Lobocrasol A] | 56 ± 3.65 µM | – | showed activity | 9.97 ± 0.64 µM | Antileishmanial activity (in words) [4]: strongly and selectively active; IC50 ([4]; Leishmania donovani): < 0.2 µM; IC50 [4]: 0.18 ± 0.02 µM
C/C1=C\[C@@H]2O[C@@H](O)[C@@]3(C)O[C@@]23CC/C(C)=C/CC[C@](C)(O)[C@H](O)CC1 [Compound 7, lobocrasol B] | – | – | – | – | Antileishmanial activity (in words) [4]: devoid of antileishmanial activity
C=C1CO[C@H]2/C=C(\C)CC[C@@H](O)[C@@](C)(O)C/C=C/[C@](C)(O)CC[C@@]12O [Compound 8, lobocrasol C] | 40.5 ± 7.75 µM | 7.37 ± 0.35 µM | showed activity | 9.37 ± 0.74 µM | Antileishmanial activity (in words) [4]: strongly and selectively active; IC50 ([4]; Leishmania donovani): < 0.2 µM; IC50 [4]: 0.17 ± 0.05 µM
C/C1=C\[C@@H]2O[C@@H](O)[C@@]3(C)O[C@@]23CC/C(C)=C/CC[C@@]2(C)O[C@H]2CC1 [Compound 10, laevigatol A] | 28.8 ± 10.3 µM | 3 µM | – | > 20 µM | Selectivity index SI = IC50(L6)/IC50(parasite), P. falciparum ([2]; L6 vs Pf): 9.52; IC50 ([2]; NF54 strain, mean ± margin of deviation of two independent determinations, read-out: IC50 Values P. falciparum): < 5 µM and 3.02 µM
C=C1CO[C@H]2/C=C(\C)CC[C@@H]3O[C@]3(C)CC/C=C(\C)CC[C@@]12O [Compound 11, laevigatol B] | – | – | – | – | In vitro activity against T. brucei (in words) [5]: active
CC1=C2CCC3(C)OC2(OC1)C1C3CCC(C)(O)C2CCC1(C)O2 (centres unmarked) [Compound 12, crassumol D] | 58.7 ± 1 µM | – | showed activity | ≤ 1 µM | IC50 [3, 10]: 0.61 ± 0.01 µM; Selectivity index, times more active against Tbr than against L6 cells ([3]; L6 vs Tbr): 96
C=C1CCC2(O)C(=C)COC2C=C(C)CCC(O)C2(C)CCC1O2 (centres unmarked) [Compound 13, crassumol E] | 43 ± 2.6 µM | 7.43 ± 0.86 µM | showed activity | ≤ 1 µM | IC50 [3, 10]: 0.72 ± 0.04 µM; Selectivity index, times more active against Tbr than against L6 cells ([3]; L6 vs Tbr): 60
C=C1CCC2=C(C)C(=O)OC2C=C(C)CCC(O)C2(C)CCC1O2 (centres unmarked) [Compound 15, Crassumol G] | 33.2 ± 13.5 µM | 7.57 ± 0.59 µM | showed activity | 12.2 ± 0.1 µM | –
C=C1CCC(C(C)C)C=CC(C)(O)CC=CC(C)(O)CCC1O [Compound 16, (1S,2E,4S,6E,8S,11S)-2,6,12(20)-cembrantriene-4,8,11-triol] | 48.6 ± 3.45 µM | – | showed activity | ≤ 1 µM | IC50 [3, 10]: 0.65 ± 0.01 µM; Selectivity index, times more active against Tbr than against L6 cells ([3]; L6 vs Tbr): 75
C=C(C)C1CC=C(C(=O)OC)CC(=O)CC(C)(O)C(O)C2=CC(C(=O)OC)=C(C1)O2 (centres unmarked) [Compound 17, Sinumaximol A] | – | – | – | – | IC50 [1]: 45 ± 2.9 µM; IC50 [2, 7]: 7.2 ± 0.71 µM; IC50 ([3]; Trypanosoma brucei; 72 h; mean ± margin of deviation of two independent determinations; read-out: IC50 Values T. b. rhodesiense): > 20 µM
C=C(C)C1CCC23OC2C(CC(C)(O)C=C2C=C(C(=O)OC)C(OC)(C1)O2)OC3=O (centres unmarked) [Compound 18, Sinumaximol C] | 28.7 ± 9.95 µM | – | showed activity | 9.88 ± 1.93 µM | –
C=C(C)C1CC(=O)CC2OC(C)(CC2=O)CC2C=C(C(=O)O2)C(OC)C1 (stereo not drawn) [Compound 21, 13-Epi-scabrolide C] | 47.5 ± 6 µM | – | showed activity | 11.8 ± 4.46 µM | –
Nc1nc(N)nc(Nc2ccc([As]3SCC(CO)S3)cc2)n1 (centres unmarked) [Melarsoprol, reference compound] | – | – | – | – | IC50 [1]: 28.9 ± 9.3 µM; IC50 ([3]; Trypanosoma brucei, 72 h, read-out: IC50 Values T. b. rhodesiense): 0.005 µM
CCCCCCCCCCCCCCCCOP(=O)([O-])OCC[N+](C)(C)C [Miltefosine, reference compound] | 143 ± 35.3 µM | – | – | – | IC50 ([4]; Leishmania donovani): 0.14 ± 0.05 µM
C/C1=C\CC/C(C)=C/C[C@](O)(C(C)C)CC/C(C)=C/CC1 [serratol, reference compound] | – | – | – | – | Activity against the malarial parasite (in words) [6]: some activity; In vitro activity against T. brucei (in words) [5]: also showed such activity

From publication PMC6332397, “Anti-Protozoal Activities of Cembrane-Type Diterpenes from Vietnamese Soft Corals” (Molecules, 2015)
